One may read the EC50 as the concentration at which the effect is half-maximal.

This assay concerns the target T1, LXRβ (Homo sapiens, UniProt P55055).
T1 construct: Co-transfection expression plasmids, comprising full-length LXRα (pCMX-h LXRα[…] or LXRβ (pCMX-hLXRβ)); expressed in transfected cells; host or cells: CV-1 African Green Monkey Kidney Cells
T1 sequence (P55055 1-460): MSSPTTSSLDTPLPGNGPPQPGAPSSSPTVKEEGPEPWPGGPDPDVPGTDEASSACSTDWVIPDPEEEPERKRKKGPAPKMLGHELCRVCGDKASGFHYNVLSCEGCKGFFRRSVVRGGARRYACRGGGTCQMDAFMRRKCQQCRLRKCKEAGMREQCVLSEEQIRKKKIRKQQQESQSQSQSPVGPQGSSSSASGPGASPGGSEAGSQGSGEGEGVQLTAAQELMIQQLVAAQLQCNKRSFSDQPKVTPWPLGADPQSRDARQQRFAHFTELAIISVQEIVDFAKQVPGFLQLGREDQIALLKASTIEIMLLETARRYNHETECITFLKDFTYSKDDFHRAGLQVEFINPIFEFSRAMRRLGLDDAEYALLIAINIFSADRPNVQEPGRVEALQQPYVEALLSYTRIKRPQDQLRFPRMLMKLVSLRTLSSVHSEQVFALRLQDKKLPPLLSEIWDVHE
T1 sequence (P19793 1-462 partner): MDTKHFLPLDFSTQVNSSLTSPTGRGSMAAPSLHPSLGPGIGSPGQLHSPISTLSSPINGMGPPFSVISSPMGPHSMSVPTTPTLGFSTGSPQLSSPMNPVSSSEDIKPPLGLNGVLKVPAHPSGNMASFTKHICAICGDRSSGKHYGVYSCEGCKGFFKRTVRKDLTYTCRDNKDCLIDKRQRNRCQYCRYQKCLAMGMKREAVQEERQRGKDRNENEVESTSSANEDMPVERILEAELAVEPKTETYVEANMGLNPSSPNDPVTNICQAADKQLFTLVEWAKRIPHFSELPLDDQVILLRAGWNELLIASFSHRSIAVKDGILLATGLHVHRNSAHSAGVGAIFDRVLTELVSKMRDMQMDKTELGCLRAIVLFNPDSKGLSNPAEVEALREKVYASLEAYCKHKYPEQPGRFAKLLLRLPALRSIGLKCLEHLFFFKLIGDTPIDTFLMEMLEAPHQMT
As to the kind of experiment: Co-transfection assay (LXRE luciferase reporter), LXRβ. The class given is cell-based. The following applies: for EC50: CV-1 cells transfected with pCMX-hLXRβ and LXREx1-Tk-Luciferase, 20 hours incubation; for Emax: LXRβ co-transfection, relative to high control 1-(2,4-difluorobenzyl)-2-oxo-6-(4-phenoxyphenyl)-4-(trifluoromethyl)-1,2-dihydropyridine-3-carbonitrile, read-out: % Efficacy. Put shortly: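 Luciferase output from an LXRE-Tk reporter measured after 20 h, 37 °C compound exposure of transiently transfected CV-1 cells expressing human LXRβ with endogenous RXR. EC50 fitted from 11-point half-log dose responses (mean of ≥2 runs); % efficacy versus maximal response of the reference agonist.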

As for `CCS(=O)(=O)c1cccc(-c2ccc(-n3cc(C(C)(F)F)nc3C)c(-n3nncc3-c3ccc(OC(F)(F)F)cc3)c2)c1` [Example 177, 1-{4-[4-(1,1-difluoroethyl)-2-methyl-1H-imidazol-1-yl]-3′-(ethylsulfonyl)biphenyl-3-yl}-5-{4-[(trifluoromethyl)oxy]phenyl}-1H-1,2,3-triazole], the EC50 was 894 nM and the Emax is 78%.
The matching figures for `Cc1nc(C(C)(F)F)cn1-c1ccc(-c2ccc(CO)c(S(C)(=O)=O)c2)cc1-n1nncc1-c1ccc(OC(F)(F)F)cc1` [Example 178, {4′-[4-(1,1-difluoroethyl)-2-methyl-1H-imidazol-1-yl]-3-(methylsulfonyl)-3′-(5-{4-[(trifluoromethyl)oxy]phenyl}-1H-1,2,3-triazol-1-yl)biphenyl-4-yl}methanol]: 638 nM and 89%.
The matching figures for `COCc1c(F)cc(-c2ccc(-n3cc(C(C)(F)F)nc3C)c(-n3nncc3-c3ccc(OC(F)(F)F)cc3)c2)cc1S(C)(=O)=O` [Example 179, 1-{4-[4-(1,1-difluoroethyl)-2-methyl-1H-imidazol-1-yl]-3′-fluoro-4′-[(methyloxy)methyl]-5′-(methylsulfonyl)biphenyl-3-yl}-5-{4-[(trifluoromethyl)oxy]phenyl}-1H-1,2,3-triazole]: 620 nM and 105%.
The matching figures for `Cc1nc(C(C)(F)F)cn1-c1ccc(-c2cccc(S(C)(=O)=O)c2)cc1-n1nncc1-c1ccc(Cl)cc1Cl` [Example 180, 5-(2,4-dichlorophenyl)-1-{4-[4-(1,1-difluoroethyl)-2-methyl-1H-imidazol-1-yl]-3′-(methylsulfonyl)biphenyl-3-yl}-1H-1,2,3-triazole]: 606 nM and 48%.
In the case of `Cc1nc(C(C)(F)F)cn1-c1ccc(-c2cccc(S(=O)(=O)N(C)C)c2)cc1-n1nncc1-c1ccc(OC(F)(F)F)cc1` [Example 181, 4′-[4-(1,1-difluoroethyl)-2-methyl-1H-imidazol-1-yl]-N,N-dimethyl-3′-(5-{4-[(trifluoromethyl)oxy]phenyl}-1H-1,2,3-triazol-1-yl)biphenyl-3-sulfonamide], the midpoint of the response, the EC50, lay at 502 nM and the Emax is 70%.
The matching figures for `CCC(F)(F)c1cn(-c2ccc(-c3cccc(S(=O)(=O)N(C)C)c3)cc2-n2nncc2-c2ccc(OC(F)(F)F)cc2)c(C)n1` [Example 182, 4′-[4-(1,1-difluoropropyl)-2-methyl-1H-imidazol-1-yl]-N,N-dimethyl-3′-(5-{4-[(trifluoromethyl)oxy]phenyl}-1H-1,2,3-triazol-1-yl)biphenyl-3-sulfonamide]: 494 nM and 78%.
The matching figures for `CCC(F)(F)c1cn(-c2ccc(-c3cccc(S(N)(=O)=O)c3)cc2-n2nncc2-c2ccc(OC(F)(F)F)cc2)c(C)n1` [Example 183, 4′-[4-(1,1-difluoropropyl)-2-methyl-1H-imidazol-1-yl]-3′-(5-{4-[(trifluoromethyl)oxy]phenyl}-1H-1,2,3-triazol-1-yl)biphenyl-3-sulfonamide]: 1480 nM and 74%.
For `CCC(F)(F)c1cn(-c2ccc(-c3cccc(S(C)(=O)=O)c3)cc2-n2nncc2-c2ccc(OC(F)(F)F)cc2)c(C)n1` [Example 184, 1-{4-[4-(1,1-difluoropropyl)-2-methyl-1H-imidazol-1-yl]-3′-(methylsulfonyl)biphenyl-3-yl}-5-{4-[(trifluoromethyl)oxy]phenyl}-1H-1,2,3-triazole] the same measures were 337 nM and 86%.
As to `CCC(F)(F)c1cn(-c2ccc(-c3cccc(S(=O)(=O)NC)c3)cc2-n2nncc2-c2ccc(OC(F)(F)F)cc2)c(C)n1` [Example 185, 4′-[4-(1,1-difluoropropyl)-2-methyl-1H-imidazol-1-yl]-N-methyl-3′-(5-{4-[(trifluoromethyl)oxy]phenyl}-1H-1,2,3-triazol-1-yl)biphenyl-3-sulfonamide], the EC50 worked out at 297 nM and the Emax came to 77%.
The matching figures for `CCC(F)(F)c1cn(-c2ccc(-c3cc(F)c(CO)c(S(C)(=O)=O)c3)cc2-n2nncc2-c2ccc(OC(F)(F)F)cc2)c(C)n1` [Example 186, {4′-[4-(1,1-difluoropropyl)-2-methyl-1H-imidazol-1-yl]-3-fluoro-5-(methylsulfonyl)-3′-(5-{4-[(trifluoromethyl)oxy]phenyl}-1H-1,2,3-txiazol-1-yl)biphenyl-4-yl}methanol]: 168 nM and 81%.
The matching figures for `CS(=O)(=O)c1cccc(-c2cc(F)c(-n3cnc(C(F)(F)F)c3)c(-n3nncc3-c3ccc(Cl)cc3)c2)c1` [Example 187, 5-(4-chlorophenyl)-1-{5-fluoro-3′-(methylsulfonyl)-4-[4-(trifluoromethyl)-1H-imidazol-1-yl]biphenyl-3-yl}-1H-1,2,3-triazole]: 518 nM and 92%.
The matching figures for `CS(=O)(=O)c1cccc(-c2cc(F)c(-n3cnc(C(F)(F)F)c3)c(-n3nncc3-c3ccc(OC(F)(F)F)cc3)c2)c1` [Example 188, 1-{5-fluoro-3′-(methylsulfonyl)-4-[4-(trifluoromethyl)-1H-imidazol-1-yl]biphenyl-3-yl}-5-{4-[(trifluoromethyl)oxy]phenyl}-1H-1,2,3-triazole]: 1750 nM and 89%.
On to `CS(=O)(=O)c1cc(-c2cc(F)c(-n3cnc(C(F)(F)F)c3)c(-n3nncc3-c3ccc(OC(F)(F)F)cc3)c2)cc(F)c1CO` [Example 189, [3,3′-difluoro-5-(methylsulfonyl)-4′-[4-(trifluoromethyl)-1H-imidazol-1-yl]-5′-(5-{4-[(trifluoromethyl)oxy]phenyl}-1H-1,2,3-triazol-1-yl)biphenyl-4-yl]methanol], for which the EC50 is 1790 nM and the Emax was determined as 95%.
For `CS(=O)(=O)c1cc(-c2cc(F)c(-n3cnc(C(F)(F)F)c3)c(-n3nncc3-c3ccc(Cl)cc3Cl)c2)cc(F)c1CO` [Example 190, {3′-[5-(2,4-dichlorophenyl)-1H-1,2,3-triazol-1-yl]-3,5′-difluoro-5-(methylsulfonyl)-4′-[4-(trifluoromethyl)-1H-imidazol-1-yl]biphenyl-4-yl}methanol] the same measures were 208 nM and 119%.
For `CS(=O)(=O)c1cccc(-c2cc(F)c(-n3cnc(C(F)(F)F)c3)c(-n3nncc3-c3ccc(Cl)cc3Cl)c2)c1` [Example 191, 5-(2,4-dichlorophenyl)-1-{5-fluoro-3′-(methylsulfonyl)-4-[4-(trifluoromethyl)-1H-imidazol-1-yl]biphenyl-3-yl}-1H-1,2,3-triazole] the same measures were 452 nM and 102%.
The matching figures for `CS(=O)(=O)c1cccc(-c2cc(Cl)c(-n3cnc(C(F)(F)F)c3)c(-n3nncc3-c3ccc(OC(F)(F)F)cc3)c2)c1` [Example 192, 1-{5-chloro-3′-(methylsulfonyl)-4-[4-(trifluoromethyl)-1H-imidazol-1-yl]biphenyl-3-yl}-5-{4-[(trifluoromethyl)oxy]phenyl}-1H-1,2,3-triazole]: 598 nM and 42%.
With `CS(=O)(=O)c1cc(-c2cc(Cl)c(-n3cnc(C(F)(F)F)c3)c(-n3nncc3-c3ccc(OC(F)(F)F)cc3)c2)cc(F)c1CO` [Example 193, [3′-chloro-3-fluoro-5-(methylsulfonyl)-4′-[4-(trifluoromethyl)-1H-imidazol-1-yl]-5′-(5-{4-[(trifluoromethyl)oxy]phenyl}-1H-1,2,3-triazol-1-yl)biphenyl-4-yl]methanol], the response was half-maximal at 598 nM (EC50) and the Emax was found to be 62%.
The matching figures for `Cc1nc(C(F)(F)F)cn1-c1c(Cl)cc(-c2cccc(S(C)(=O)=O)c2)cc1-n1nncc1-c1ccc(OC(F)(F)F)cc1` [Example 195, 1-{5-chloro-3′-(methylsulfonyl)-4-[2-methyl-4-(trifluoromethyl)-1H-imidazol-1-yl]biphenyl-3-yl}-5-{4-[(trifluoromethyl)oxy]phenyl}-1H-1,2,3-triazole]: 574 nM and 83%.

The values above are taken from patent publication US9834542B2, “LXR modulators” (BRISTOL-MYERS SQUIBB COMPANY, priority 2013, dated 2017).
